Measurements as given in ChEMBL document CHEMBL1201862, “PubChem BioAssay data set” (2004).
Active and inactive are the calls of the source.

Columns and labels:
[1] = target: T1, High affinity choline transporter 1 (Homo sapiens, UniProt Q9GZV3); experiment: human choline transporter blockers, potency – cell-based, 5-point CRC, membrane potential dye, dose response (AID 504840); format: functional
T1 sequence (Q9GZV3 whole entry): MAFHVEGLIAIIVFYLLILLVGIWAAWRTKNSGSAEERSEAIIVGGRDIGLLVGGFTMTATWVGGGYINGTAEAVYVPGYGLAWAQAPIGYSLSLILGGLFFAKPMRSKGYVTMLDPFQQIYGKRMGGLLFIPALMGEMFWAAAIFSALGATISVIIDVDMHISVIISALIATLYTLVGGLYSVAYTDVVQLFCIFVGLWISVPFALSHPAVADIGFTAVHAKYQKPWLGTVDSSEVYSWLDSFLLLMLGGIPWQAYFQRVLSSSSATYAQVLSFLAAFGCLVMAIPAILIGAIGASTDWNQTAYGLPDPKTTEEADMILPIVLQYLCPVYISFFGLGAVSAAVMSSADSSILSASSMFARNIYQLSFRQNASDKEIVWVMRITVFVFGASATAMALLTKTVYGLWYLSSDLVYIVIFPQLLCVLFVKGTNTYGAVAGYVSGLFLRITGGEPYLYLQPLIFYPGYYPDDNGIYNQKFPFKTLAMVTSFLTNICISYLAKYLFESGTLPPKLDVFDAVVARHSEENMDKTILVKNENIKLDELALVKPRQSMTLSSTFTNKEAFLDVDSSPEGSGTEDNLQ

[2] = reduction of Shn3 3'UTR-driven luciferase in osteoblasts – cell-based, Clone20 osteoblasts, firefly luciferase, cherry-picked, dose response (AID 624132); format: functional;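 note: firefly luciferase luminescence from reporter carrying the Shn3 3'UTR in osteoblasts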
[3] = non-specific 3'UTR reporter inhibition in Clone20-Shn3RL – cell-based, Renilla luciferase, cherry-picked, counter-screen for Shn3 inhibitor project, dose response (AID 624133); format: functional
[4] = loss of viability in HepG2 cells – cell-based, CellTiter-Glo, cherry-picked, cytotoxicity control for Shn3 inhibitor project, dose response (AID 624134); format: functional
P388 = experiment: cells; format: functional; details: Mus musculus
SN12K1 = experiment: cells; format: functional; details: Homo sapiens
P388/ADR = experiment: cells; format: functional; details: Mus musculus
[5] = target: FAD-linked sulfhydryl oxidase ALR (Homo sapiens, UniProt P55789); experiment: ALR-catalysed DTT oxidation blockers – biochemical, H2O2 detection, luminescence, cherry-pick, dose response (AID 493248)
FAD-linked sulfhydryl oxidase ALR, sequence (P55789 whole entry): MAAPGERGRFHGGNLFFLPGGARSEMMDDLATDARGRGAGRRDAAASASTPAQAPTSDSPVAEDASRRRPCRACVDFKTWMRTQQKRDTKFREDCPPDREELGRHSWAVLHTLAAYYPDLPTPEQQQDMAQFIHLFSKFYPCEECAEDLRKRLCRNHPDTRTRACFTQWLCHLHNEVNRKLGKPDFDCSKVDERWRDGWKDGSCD

Compound	GI50 (P388)	GI50 (SN12K1)	GI50 (P388/ADR)	other results
COc1ccc(-n2nnnc2CNC(=O)c2ccc3ccccc3c2)cc1				IC50 [1]: 14.5 µM (active)
CC1CC(C)(C)CC2(C1)NC(=O)N(CC(=O)N1CCN(Cc3ccc(C#N)cc3)CC1)C2=O (stereo not given)				AC50 [2]: 1.47 µM (active); AC50 [3]: 0.65 µM (active); AC50 [4]: 2.54 µM (active)
Cc1cc(C)cc(NS(=O)(=O)c2cnc(Cl)c(Cl)c2)c1				IC50 [1]: 16.6 µM (active)
COc1ccc2c(c1)CCCc1cn[nH]c1-2	> 100 µM (inactive)	> 100 µM (inactive)	> 100 µM (inactive)	
O=C1C2=C(C3=NCCc4c[nH]c1c43)C1(C=C(Br)C(O)C(Br)=C1)CCN2 (stereo not given)	1.25 µM (inactive)	2.99 µM (inactive)	1.81 µM (inactive)	
CNC(=O)SCC(NC(=O)CCC(N)C(=O)O)C(=O)NCC(=O)O (stereo not given)	27.5 µM (inactive)	> 59.2 µM (inactive)	26.4 µM (inactive)	
CC(C)=CCc1c(C)cc2cc3c(c(O)c2c1O)C(=O)C=C(O)C3(CC=C(C)C)C/C=C(\C)CO (stereo not given)	23.5 µM (inactive)	35.2 µM (inactive)	20.1 µM (inactive)	
Cc1c(N)nc([C@H](CC(N)=O)NC[C@H](N)C(N)=O)nc1C(=O)N[C@H](C(=O)N[C@H](C)[C@@H](O)[C@H](C)C(=O)N[C@H](C(=O)NCCc1nc(-c2nc(C(=O)NCCC[S+](C)C)cs2)cs1)[C@@H](C)O)C(OC1OC(CO)C(O)C(O)C1OC1OC(CO)C(O)C(OC(N)=O)C1O)c1c[nH]cn1 (stereo not given in full)	2.11 µM (inactive)	0.19 µM (active)	3.49 µM (inactive)	
FC(F)(F)C1=NC(=NNc2nnc(-c3ccccc3)c(-c3ccccc3)n2)N=C(C(F)(F)F)C1	0.891 µM (active)	10.1 µM (inactive)	11.1 µM (inactive)	
COc1cc(/C=C/C(=O)O)ccc1C(=O)O/C=C/c1ccccc1	25.6 µM (inactive)	> 100 µM (inactive)	14.1 µM (inactive)	
CC1[C@@]2(CCC(C)(C)O2)O[C@@H]2C=C3C4CCC5Cc6nc7c(nc6C[C@@]5(C)C4C[C@H](O)[C@@]3(C)[C@]12O)CC1CCC2C3=C[C@H]4O[C@@]5(O[C@@](C)(CO)C[C@@H]5O)C(C)[C@@]4(O)[C@]3(C)[C@@H](O)CC2[C@]1(C)C7 (stereo not given in full)	0.000365 µM (active)	0.000365 µM (active)	0.00112 µM (active)	
Cc1ccc(Cn2c(N/N=C/c3ccncc3)nc3c2c(=O)n(C)c(=O)n3C)cc1				AC50 [5]: 1.77 µM (active)
CC(NC(=O)c1ccccc1)C(=O)N/N=C/c1ccc(O)cc1 (stereo not given)				AC50 [5]: 2.14 µM (active)
OCC1CCC(n2cnc3c(O)ncnc32)O1 (stereo not given)	> 100 µM (inactive)	> 100 µM (inactive)	> 100 µM (inactive)	
CC(C)Sc1sc(C(=O)O)c(-c2ccc(Cl)cc2)c1C#N				IC50 [1]: 13.5 µM (active)
